# System: German cockroaches (Blattella germanica)
# Assay: Knock-down test by spraying oil solution on German cockroaches
# Format: in vivo
# Settings: 0.00625% (w/v) oil solution, 1.5 ml sprayed, ten adult German cockroaches (5 males, 5 females)
# Method: Zero point zero zero six two five (0.00625) part of the compound of the present inventions (1) and (2) was dissolved in 10 parts of isopropyl alcohol and the solution was mixed with 89.99375 parts of deodorized kerosene to prepare a 0.00625% (w/v) oil solution.
# Ten adult German cockroaches (Blattella germanica, 5 males and 5 females) were released in a test container (diameter 8.75 cm, 7.5 cm high, the bottom face is made of 16 mesh metallic wire), the inner face on which butter was applied, and the container was set at the bottom of a test chamber (bottom face: 46 cm×46 cm, height: 70 cm).
# Each 1.5 ml of the oil solution of the compound of the present invention (1) and (2) was sprayed using a spray gun at a pressure of 0.4 kg/cm^2 from 60 cm higher than the upper face of the container. Thirty seconds after the spraying, the container was pulled out from the chamber. Two minutes after spraying, the number of knocked-down cockroaches was counted and a knock-down ratio was determined (repeated once). A knocked-down ratio was calculated by the following equation. Knocked-down ratio (%)=(Number of knocked-down cockroaches/Number of test cockroaches)×100 The results (2 minutes after spraying) are shown in Table 1.
row,SMILES,Knock-down ratio (%) 2 minutes after spraying [%]
1,"C#CCn1c(C)nn(COC(=O)[C@@H]2[C@@H](/C=C(\C#N)C=C)C2(C)C)c1=O [compound of the present invention (1), 3-methyl-5-oxo-4-(2-propynyl)-4,5-dihydro-[1,2,4]triazolylmethyl=(1R)-trans-3-[(1Z)-2-cyano-1,3-butadienyl]-2,2-dimethylcyclopropane carboxylate]",100
2,"C#CCn1c(C)nn(COC(=O)[C@@H]2[C@@H](/C=C(C#N)/C=C/C)C2(C)C)c1=O [compound of the present invention (2), 3-methyl-5-oxo-4-(2-propynyl)-4,5-dihydro-[1,2,4]triazolylmethyl=(1R)-trans-3-[(1Z,3E)-2-cyano-1,3-pentadienyl]-2,2-dimethylcyclopropane carboxylate]",100

# — patent US8614241B2, “Ester compound and use thereof” (Sumitomo Chemical Company, Limited, priority 2010, dated 2013)
